In patent US11274332B2, “Methods of administering 3,4-diaminopyridine” (SERB SA, priority 2011, dated 2022):

Columns and labels:
[1] = target: T1, cloned human Kv1.3 potassium channel (Homo sapiens, UniProt P22001); test: PatchXpress inhibition of cloned human Kv1.3 in CHO cells (Example 6); assay type: cell-based; conditions: hKv1.3, up to 3000 μM
T1 construct: expressed in transfected cells
Source text: (§1) The objective of this study was to examine the in vitro effects and determine the […] of 3,4-DAP phosphate and the metabolite N-(4-aminopyridin-3-yl) acetamide HCl on the following ion channels: cloned human Kv1.1 potassium channel (encoded by the human KCNA1 gene, expressed in HEK293 cells), cloned human Kv1.2 potassium channel (encoded by the human KCNA2 gene, expressed in HEK293 cells), cloned human Kv1.3 potassium channel (encoded by the human KCNA3 gene, expressed in CHO cells), cloned human Kv1.4 potassium channel (encoded by the human KCNA4 gene, expressed in HEK293 cells), cloned human Kv1.5 potassium channel (encoded by the human KCNA5 gene and expressed in CHO cells), responsible for IKur, ultra-rapid delayed rectifier potassium current.
(§2) Chemicals used in solution preparation were purchased from Sigma-Aldrich (St. Louis, Mo.), unless otherwise noted, and were of ACS reagent grade purity or higher. Stock solutions of each test article (100 mM, 30 mM and 1.00 mM 3,4-DAP phosphate and 100 mM N-(4-aminopyridin-3-yl)acetamide) were prepared in sterile water and stored refrigerated. […]
(§3) In preparation for a recording session, intracellular solution was loaded into the intracellular compartments of the Sealchip16. […] After establishment of a whole-cell configuration, membrane currents were recorded using dual-channel patch clamp amplifiers in the PatchXpress®. […]

[2] = Rat PK study, IV and oral TID amifampridine phosphate (Example 4); assay type: in vivo; conditions: rat plasma
Procedure: The objective of this study was to determine the absolute bioavailability of amifampridine phosphate and the pharmacokinetics of amifampridine and its 3-N-acetyl metabolite upon single-dose IV and single-day oral dose (TID) administration.
Amifampridine phosphate was administered by IV bolus at 0.8 mg/kg (in saline) to 6 rats/sex and by oral gavage (in water) TID (approximately 6 hours apart) at dose levels of 2, 8, and 25 mg/kg/dose (equivalent to 6, 24, and 75 mg/kg/day) to 12 rats/sex/group, with oral Dose 1 given to fasted rats and Dose 2 and 3 with food ad libitum. For IV bolus dose and oral Dose 1 (dose administration No. 1), blood samples were collected from three animals/sex/timepoint at predose and 0.083 (IV only), 0.17, 0.25, 0.33, 0.5, 0.75, 1, 1.25 (IV only), 1.5, 2, 2.5, 3, and 6 hours post-dose; 0.17, 0.5, and 6 hours following the second oral dose (dose administration No. 2); and 0.17, 0.25, 0.33, 0.5, 0.75, 1, 1.5, 2, 3, 4, 6, 8, and 10 hours following the third oral dose (dose administration No. 3). The second and third oral doses were given at 6 and 12 hours, respectively, after the first dose. LC-MS/MS was used to quantify amifampridine, 3-N-acetyl and 4-N-acetyl amifampridine metabolites in rat plasma samples. […] Noncompartmental analysis was applied to the mean plasma amifampridine and 3-N-acetyl metabolite concentration data for male and female rats. […]

[3] = target: T2, cloned human Kv1.2 potassium channel (Homo sapiens, UniProt P16389); test: PatchXpress inhibition of cloned human Kv1.2 in HEK293 cells (Example 6); assay type: cell-based; conditions: hKv1.2, up to 3000 μM
T2 construct: expressed in transfected cells
T2 sequence (P16389 whole entry): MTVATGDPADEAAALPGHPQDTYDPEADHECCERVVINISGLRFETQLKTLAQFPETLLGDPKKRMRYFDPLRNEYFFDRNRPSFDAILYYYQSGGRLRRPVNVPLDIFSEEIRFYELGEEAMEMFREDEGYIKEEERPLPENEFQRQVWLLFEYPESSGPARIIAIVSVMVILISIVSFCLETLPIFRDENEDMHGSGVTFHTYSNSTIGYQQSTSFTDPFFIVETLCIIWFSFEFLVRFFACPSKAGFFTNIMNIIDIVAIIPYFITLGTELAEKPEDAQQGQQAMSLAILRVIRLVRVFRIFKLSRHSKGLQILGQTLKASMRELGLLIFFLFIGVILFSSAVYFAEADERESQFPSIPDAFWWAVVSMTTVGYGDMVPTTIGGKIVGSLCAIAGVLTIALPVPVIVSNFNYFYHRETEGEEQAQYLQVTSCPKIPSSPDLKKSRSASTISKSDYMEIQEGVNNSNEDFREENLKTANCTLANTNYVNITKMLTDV
Source text: as §1, §2, §3

T1 sequence (P22001 whole entry): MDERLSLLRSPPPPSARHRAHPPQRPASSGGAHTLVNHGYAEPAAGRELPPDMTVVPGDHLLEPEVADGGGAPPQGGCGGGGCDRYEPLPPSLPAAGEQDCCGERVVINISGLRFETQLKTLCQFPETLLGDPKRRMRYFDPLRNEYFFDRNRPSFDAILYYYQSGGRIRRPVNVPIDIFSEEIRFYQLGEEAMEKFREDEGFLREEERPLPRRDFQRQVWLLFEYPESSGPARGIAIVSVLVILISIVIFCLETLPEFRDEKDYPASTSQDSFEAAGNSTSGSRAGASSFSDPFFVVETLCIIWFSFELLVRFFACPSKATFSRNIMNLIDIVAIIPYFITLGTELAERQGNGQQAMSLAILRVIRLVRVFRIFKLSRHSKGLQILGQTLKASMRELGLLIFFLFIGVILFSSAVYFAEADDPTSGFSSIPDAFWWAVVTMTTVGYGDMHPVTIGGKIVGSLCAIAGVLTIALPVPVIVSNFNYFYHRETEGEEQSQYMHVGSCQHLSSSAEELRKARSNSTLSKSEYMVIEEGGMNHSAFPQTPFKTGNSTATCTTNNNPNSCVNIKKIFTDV

## CC(=O)Nc1cnccc1N [3-N-acetyl amifampridine, N-(4-aminopyridin-3-yl)acetamide]
[1]
  activity on K+ channel: inactive
[1]; listed as N-acetyl metabolite
  activity on K+ channel: not active
[2]
  abundance of major circulating metabolite relative to 3,4-DAP: more abundant than 3,4-DAP
[3]
  activity on K+ channel: inactive
[3]; listed as N-acetyl metabolite
  activity on K+ channel: not active
